Reference: paper PMC4376002 (Frontiers in Bioengineering and Biotechnology, 2015)
≈ marks a conversion by molar mass, not a printed value.

Columns and labels:
human FKBP12 = human FKBP12 (Homo sapiens, UniProt P62942); experiment: biochemical
Mip of L. pneumophila = Mip of L. pneumophila (Legionella pneumophila subsp. pneumophila, UniProt Q5ZXE0); experiment: biochemical; format: biochemical
[1] = tested on: L. pneumophila Corby (WT); experiment: microbe, parasite or virus in culture; format: cell-based, Legionella pneumophila; conditions: for MIC: Legionella pneumophila, 48 h, read-out: WT MIC, growth in YEB, 10 to 100 μM, 37°C, 2 days; for influence on the viability of wild type L. pneumophila: liquic culture
[2] = tested on: Yersinia pseudotuberculosis; format: cell-based; conditions: LB medium, data not shown
[3] = tested on: Pseudomonas aeruginosa PA01; format: cell-based
[4] = tested on: Salmonella enterica subsp. Enterica; format: cell-based
Klebsiella aerogenes = format: cell-based
Escherichia coli K12 = format: cell-based
Staphylococcus aureus = format: cell-based
[5] = tested on: L. pneumophila Corby in differentiated THP-1 macrophages; format: cell-based, Legionella pneumophila; conditions: compound added 2 h post infection, cfu/ml 24 h post infection; for concentration at which suppression of bacterial replication in THP-1 cells starts: 12.5 to 100 μM tested; for effect on bacterial replication in THP-1 cells: up to 100 μM
[6] = tested on: Mip-like protein of Burkholderia pseudomallei (BpML1); conditions: ref Norville et al., 2011; read-out: IC50-value toward BpML1; cited from earlier work
[7] = growth in YEB, 10 to 100 μM, 37°C, 2 days

Chain of Mip of L. pneumophila (Q5ZXE0 21-233 limits assumed): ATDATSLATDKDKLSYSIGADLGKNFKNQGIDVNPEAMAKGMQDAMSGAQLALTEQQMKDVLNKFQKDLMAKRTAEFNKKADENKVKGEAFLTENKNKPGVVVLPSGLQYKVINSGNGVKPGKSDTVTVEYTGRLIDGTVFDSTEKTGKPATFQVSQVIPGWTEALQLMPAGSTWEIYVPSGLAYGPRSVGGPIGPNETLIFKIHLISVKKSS
Chain of human FKBP12 (P62942 whole entry): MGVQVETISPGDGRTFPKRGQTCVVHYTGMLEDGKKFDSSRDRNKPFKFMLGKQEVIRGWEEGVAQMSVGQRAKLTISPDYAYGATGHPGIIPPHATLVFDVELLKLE

Structure (SMILES) | IC50 (human FKBP12) [µM] | IC50 (Mip of L. pneumophila) [µM] | MIC [1] [µM] | WT Inhibition [1, 7] | influence on the viability of wild type L. pneumophila ([1]; 10 to 100 μM) | also measured
CC1CC(C)C(=O)C(C(O)CC2CC(=O)N(CC(=O)NC34CC5CC(C)(CC(C)(C5)C3)C4)C(=O)C2)C1 (centres unmarked) [MT_30.32] | 0.18 ± 0.05 | 1.7 ± 0.2 | ≥ 30 | – | – | IC50-value for Mip relative to FKBP12 (fold higher; FKBP12 inhibited x-fold better) (Mip of L. pneumophila): 10 fold; effect on growth of Y. pseudotuberculosis [2]: none of the tested strains were affected in their growth; effect on growth of P. aeruginosa PA01 [3]: none of the tested strains were affected in their growth; effect on growth of S. enterica subsp. enterica [4]: none of the tested strains were affected in their growth; effect on growth of K. aerogenes (Klebsiella aerogenes): none of the tested strains were affected in their growth; effect on growth of E. coli K12 (Escherichia coli K12): none of the tested strains were affected in their growth; effect on growth of S. aureus (Staphylococcus aureus): none of the tested strains were affected in their growth; concentration at which suppression of bacterial replication in THP-1 cells starts [5]: 50 µM; effect on bacterial replication in THP-1 cells [5]: effectively suppressed bacterial replication; cytotoxicity to THP-1 cells (THP-1 cells): without having cytotoxic side effects
C[C@@H]1CC([C@H](O)CC2CC(=O)N(CC(=O)N(C)C(C)(C)C)C(=O)C2)C(=O)[C@@H](C)C1 (some centres unmarked) [MT_30.9] | 36.1 ± 4.1 | 31.7 ± 7.4 | 30 (≈ 12.3 µg/mL) | – | – | fold less effective than MT_30.32 in the protease coupled PPIase-assay (Mip of L. pneumophila): about 18 fold; effect on bacterial replication in THP-1 cells [5]: no effect
C[C@@H]1CC([C@H](O)CC2CC(=O)N(CC(=O)NC(C)(C)C)C(=O)C2)C(=O)[C@@H](C)C1 (some centres unmarked) [MT_30.3] | – | 33.8 ± 8.6 | – | - (no inhibition of growth at the highest tested concentration of 100 μM) | no influence | –
CCC12CC3CC(C1)CC(NC(=O)CN1C(=O)CC(C[C@@H](O)C4C[C@@H](C)C[C@H](C)C4=O)CC1=O)(C3)C2 (some centres unmarked) [MT_30.51] | 0.19 ± 0.06 | 5.6 ± 1.1 | ≥ 30 | – | – | IC50-value for Mip relative to FKBP12 (fold higher; FKBP12 inhibited x-fold better) (Mip of L. pneumophila): about 25 fold; concentration at which suppression of bacterial replication in THP-1 cells starts [5]: 50 µM; effect on bacterial replication in THP-1 cells [5]: effectively suppressed bacterial replication; cytotoxicity to THP-1 cells (THP-1 cells): without having cytotoxic side effects
CC1CC(C)C(=O)C(C(O)CC2CC(=O)N(CC(=O)NC34CC5(C)CC(C)(CC(O)(C5)C3)C4)C(=O)C2)C1 (centres unmarked) [MT_30.79] | 0.22 ± 0.02 | 4.9 ± 0.9 | – | - (no inhibition of growth at the highest tested concentration of 100 μM) | no influence | IC50-value for Mip relative to FKBP12 (fold higher; FKBP12 inhibited x-fold better) (Mip of L. pneumophila): about 25 fold
C[C@@H]1CC([C@H](O)CC2CC(=O)N(CC(=O)NC34CC5CC(CC(C5)C3)C4)C(=O)C2)[C@@H](O)[C@@H](C)C1 (some centres unmarked) [MT_30.93] | 0.9 ± 0.05 | 16.3 ± 2.6 | ≥ 30 | – | – | –
C[C@@H]1CC([C@H](O)CC2CC(=O)N(CC(=O)NC34CC5CC(CC(O)(C5)C3)C4)C(=O)C2)C(=O)[C@@H](C)C1 (some centres unmarked) [MT_30.38] | 1.2 ± 0.1 | 21.8 ± 3.3 | – | - (no inhibition of growth at the highest tested concentration of 100 μM) | no influence | –
CO[C@H]1C[C@@H]2CC[C@@H](C)[C@@](O)(O2)C(=O)C(=O)N2CCCC[C@H]2C(=O)O[C@H]([C@H](C)C[C@@H]2CC[C@@H](O)[C@H](OC)C2)CC(=O)[C@H](C)/C=C(\C)[C@@H](O)[C@@H](OC)C(=O)[C@H](C)C[C@H](C)/C=C/C=C/C=C/1C [Rapamycin, reference compound] | – | – | ≥ 40 | – | – | WT MIC [1, 7]: 40 µM
C[C@@H]1CC([C@H](O)CC2CC(=O)N(CC(=O)NC34CC5CC(CC(C5)C3)C4)C(=O)C2)[C@H](O)[C@@H](C)C1 (some centres unmarked) [MT_30.92] | 1 ± 0.1 | 12.6 ± 1.4 | ≥ 30 | – | – | –
CCOC(=O)CN1C(=O)CC(CC(O)C2CC(C)CC(C)C2=O)CC1=O (centres unmarked) [Cycloheximide-N-ethylethanoate] | – | – | – | – | – | IC50 [6]: 6.5 ± 1 µM
C[C@@H]1CC([C@H](O)CC2CC(=O)N(CC(=O)NC34CC5CC(CC(C5)C3)C4)C(=O)C2)C(=O)[C@@H](C)C1 (some centres unmarked) [MT_30.8] | 0.4 ± 0.04 | 8.5 ± 2.1 | – | - (no inhibition of growth at the highest tested concentration of 100 μM) | no influence | –
